In patent publication US10138254B2, “Bicyclic compounds as pest control agents” (BAYER CROPSCIENCE AKTIENGESELLSCHAFT, priority 2014, dated 2018):
Like-named read-outs stand apart in the source and are kept apart here.

Experiments:
[1] = system: larvae of the mustard beetle (Phaedon cochleariae); test: Phaedon cochleariae spray test (Chinese cabbage leaf discs); format: in vivo; conditions: application rate 500 g/ha, after 7 days, 100% = all beetle larvae killed
Description: Phaedon cochleariae—Spray Test
Solvent: 78.0 parts by weight of acetone • • 1.5 parts by weight of dimethylformamide
Emulsifier: alkylaryl polyglycol ether
To produce a suitable active ingredient formulation, 1 part by weight of active ingredient is dissolved with the specified parts by weight of solvent and made up with water containing an emulsifier concentration of 1000 ppm until the desired concentration is attained. To produce further test concentrations, the formulation is diluted with emulsifier-containing water.
After 7 days, the efficacy in % is determined. 100% means that all the beetle larvae have been killed; 0% means that no beetle larvae have been killed.

[2] = log P by HPLC on reversed-phase (C18) columns, OECD Guideline 117; format: physicochemical; conditions: reversed-phase (C18) HPLC column
Description: The log P values were determined in accordance with OECD Guideline 117 (EC Directive 92/69/EEC) by HPLC (high-performance liquid chromatography) using reversed-phase (RP) columns (C18), by the following methods: [a] The LC-MS determination in the acidic range is carried out at pH 2.7 with 0.1% aqueous formic acid and acetonitrile (contains 0.1% formic acid) as eluents; linear gradient from 10% acetonitrile to 95% acetonitrile. [b] LC-MS determination in the neutral range is effected at pH 7.8 with 0.001 molar aqueous ammonium hydrogencarbonate solution and acetonitrile as eluents; linear gradient from 10% acetonitrile to 95% acetonitrile. Calibration is carried out using unbranched alkan-2-ones (having 3 to 16 carbon atoms) with known log P values (log P values determined on the basis of the retention times by linear interpolation between two successive alkanones).

[3] = system: green peach aphid (Myzus persicae); test: Myzus persicae spray test (Chinese cabbage leaf discs); format: in vivo; conditions: Myzus persicae, foliar, 144 h, application rate 500 g/ha, after 6 days, 100% = all aphids killed, read-out: efficacy
Description: Myzus persicae—Spray Test Solvent: 78 parts by weight of acetone • • 1.5 parts by weight of dimethylformamide Emulsifier: alkylaryl polyglycol ether To produce a suitable active ingredient formulation, 1 part by weight of active ingredient is dissolved with the specified parts by weight of solvent and made up with water containing an emulsifier concentration of 1000 ppm until the desired concentration is attained. To produce further test concentrations, the formulation is diluted with emulsifier-containing water. Discs of Chinese cabbage leaves (Brassica pekinensis) infested by all stages of the green peach aphid (Myzus persicae) are sprayed with an active ingredient formulation of the desired concentration. After 6 days, the efficacy in % is determined. 100% means that all the aphids have been killed; 0% means that no aphids have been killed.

[4] = system: green peach aphid (Myzus persicae); test: Myzus persicae spray test (bell pepper plants); format: in vivo; conditions: application rate 4 ppm, after 6 days, 100% = all aphids killed
Description: Myzus persicae—Spray Test Solvent: 7 parts by weight of dimethylformamide Emulsifier: alkylaryl polyglycol ether To produce a suitable active ingredient formulation, 1 part by weight of active ingredient is dissolved with the specified parts by weight of solvent and made up with water containing an emulsifier concentration of 1000 ppm until the desired concentration is attained. To produce further test concentrations, the formulation is diluted with emulsifier-containing water. If the addition of ammonium salts or/and penetrants is required, these are each added in a concentration of 1000 ppm to the formulation solution. Bell pepper plants (Capsicum annuum) severely infested with the green peach aphid (Myzus persicae) are treated by spraying with the active ingredient formulation in the desired concentration. After 6 days, the kill in % is determined. 100% means that all of the aphids have been killed; 0% means that none of the aphids have been killed.

[5] = acidic range, pH 2.7, 0.1% aqueous formic acid and acetonitrile, read-out: LogP[a]
[6] = neutral range, pH 7.8, 0.001 molar aqueous ammonium hydrogencarbonate and acetonitrile, read-out: logP[b]

Row | chromatographic logP [2, 5] | chromatographic logP [2, 6] | Compound | efficacy [1] | pest or weed control at 500 g/ha [3] | efficacy (kill) [4]
1 | 1.29 | 1.36 | Cn1c(=O)cnn(-c2cnc3nc(-c4cccnc4)sc3c2)c1=O [Example 39, 4-Methyl-2-[2-(pyridin-3-yl)[1,3]thiazolo[4,5-b]pyridin-6-yl]-1,2,4-triazine-3,5(2H,4H)-dione] | 83% | 90% | –
2 | 1.91 | 1.86 | Cc1cc(C)c([S+]([O-])CC(F)(F)F)cc1-c1cnc2nc(-c3ccc[n+]([O-])c3)sc2c1 (stereo not shown) [Example 21] | – | – | 100%
